From ChEMBL document CHEMBL3885861, “Open TG-GATES”

Species on record: Rattus norvegicus
Test: Open TG-GATES - Regimen: Daily Repeat
Format: toxicity, organism-based, Sprague-Dawley
Set-up: regimen Daily Repeat, gender Male, age 6 weeks
Conditions: in vivo, po, 50 mg/kg, route gavage, dose level Middle; for APTT / Bas / Eos / Fbg / Hb / Ht / Lym / MCH / MCHC / MCV / Mono / Neu / PT / Plat / RBC / Ret / WBC: tissue Blood; for KIDNEY_L / KIDNEY_R / KIDNEY_TOTAL: tissue Kidney; for LIVER: tissue Liver; for A/G / ALP / ALT / AST / BUN / CRE / Ca / Cl / DBIL / GLC / IP / K / LDH / Na / PL / RALB / TBIL / TC / TG / TP / gamma-GTP: tissue Plasma

`CN(C)CCC=C1c2ccccc2CCc2ccccc21` [AMITRIPTYLINE] gave a TERMINAL_BW (72 h, time 3 day) of 221 g, an APTT (72 h, time 3 day) of 16.6 s and a Bas (72 h, time 3 day) of 0.2%. The Eos (72 h, time 3 day) was 1%, the Fbg (72 h, time 3 day) was 279.2 mg/dL and the Hb (72 h, time 3 day) was 13.3 g/dL. It also gave a Ht (72 h, time 3 day) of 40%, a Lym (72 h, time 3 day) of 80.2% and an MCH (72 h, time 3 day) of 21 pg. For the same compound, the MCHC (72 h, time 3 day) was 33.3%, the MCV (72 h, time 3 day) was 63.1 fL and the Mono (72 h, time 3 day) was 2.6%. It also gave a Neu (72 h, time 3 day) of 15.6%, a PT (72 h, time 3 day) of 16.3 s and a Plat (72 h, time 3 day) of 120.1 x10_4/uL. For the same compound, the RBC (72 h, time 3 day) was 634.6 x10_4/ul, the Ret (72 h, time 3 day) was 6% and the WBC (72 h, time 3 day) was 115.2 x10_2/uL. It also gave a KIDNEY_L (72 h, time 3 day) of 0.9 g, a KIDNEY_R (72 h, time 3 day) of 0.9 g and a KIDNEY_TOTAL (72 h, time 3 day) of 1.8 g. For the same compound, the LIVER (72 h, time 3 day) was 10.1 g, the A/G (72 h, time 3 day) was 0.8 and the ALP (72 h, time 3 day) was 1628.8 IU/L. For the same compound, the ALT (72 h, time 3 day) was 49.4 IU/L, the AST (72 h, time 3 day) was 67.6 IU/L and the BUN (72 h, time 3 day) was 16 mg/dL. For the same compound, the CRE (72 h, time 3 day) was 0.2 mg/dL, the Ca (72 h, time 3 day) was 10.9 mg/dL and the Cl (72 h, time 3 day) was 105.6 meq/L. For the same compound, the DBIL (72 h, time 3 day) was 0.02 mg/dL, the GLC (72 h, time 3 day) was 180.6 mg/dL and the IP (72 h, time 3 day) was 7.8 mg/dL. For the same compound, the K (72 h, time 3 day) was 4.4 meq/L, the LDH (72 h, time 3 day) was 62.8 IU/L and the Na (72 h, time 3 day) was 143.8 meq/L. The PL (72 h, time 3 day) was 158.4 mg/dL, the RALB (72 h, time 3 day) was 2.6 g/dL and the TBIL (72 h, time 3 day) was 0.048 mg/dL. For the same compound, the TC (72 h, time 3 day) was 87 mg/dL, the TG (72 h, time 3 day) was 98.8 mg/dL and the TP (72 h, time 3 day) was 5.8 g/dL. The gamma-GTP (72 h, time 3 day) was 0.8 IU/L, the TERMINAL_BW ([…], time 7 day) was 255.7 g and the TERMINAL_BW ([…], time 14 day) was 305.2 g. The TERMINAL_BW ([…], time 28 day) was 359.5 g, the APTT ([…], time 7 day) was 15 s and the Bas ([…], time 7 day) was 0.4%. The Eos ([…], time 7 day) was 1%, the Fbg ([…], time 7 day) was 280.6 mg/dL and the Hb ([…], time 7 day) was 13.2 g/dL. It also gave a Ht ([…], time 7 day) of 40%, a Lym ([…], time 7 day) of 74.8% and an MCH ([…], time 7 day) of 20.7 pg. It also gave an MCHC ([…], time 7 day) of 33%, an MCV ([…], time 7 day) of 62.7 fL and a Mono ([…], time 7 day) of 2.8%. For the same compound, the Neu ([…], time 7 day) was 20.4%, the PT ([…], time 7 day) was 15.5 s and the Plat ([…], time 7 day) was 108.4 x10_4/uL. The RBC ([…], time 7 day) was 638 x10_4/ul, the Ret ([…], time 7 day) was 5.2% and the WBC ([…], time 7 day) was 119.8 x10_2/uL. The APTT ([…], time 14 day) was 16.5 s, the Bas ([…], time 14 day) was 0.2% and the Eos ([…], time 14 day) was 1%. The Fbg ([…], time 14 day) was 299 mg/dL, the Hb ([…], time 14 day) was 14.4 g/dL and the Ht ([…], time 14 day) was 43.2%. For the same compound, the Lym ([…], time 14 day) was 77.2%, the MCH ([…], time 14 day) was 20.2 pg and the MCHC ([…], time 14 day) was 33.4%. The MCV ([…], time 14 day) was 60.5 fL, the Mono ([…], time 14 day) was 2.8% and the Neu ([…], time 14 day) was 18.2%. It also gave a PT ([…], time 14 day) of 16.2 s, a Plat ([…], time 14 day) of 111 x10_4/uL and an RBC ([…], time 14 day) of 713.6 x10_4/ul. It also gave a Ret ([…], time 14 day) of 4%, a WBC ([…], time 14 day) of 107.8 x10_2/uL and an APTT ([…], time 28 day) of 20.1 s. The Bas ([…], time 28 day) was 0.8%, the Eos ([…], time 28 day) was 0.8% and the Fbg ([…], time 28 day) was 289.6 mg/dL. The Hb ([…], time 28 day) was 15.6 g/dL, the Ht ([…], time 28 day) was 45% and the Lym ([…], time 28 day) was 80.6%. It also gave an MCH ([…], time 28 day) of 19.6 pg, an MCHC ([…], time 28 day) of 34.6% and an MCV ([…], time 28 day) of 56.5 fL. For the same compound, the Mono ([…], time 28 day) was 2.4%, the Neu ([…], time 28 day) was 14.8% and the PT ([…], time 28 day) was 16.6 s. It also gave a Plat ([…], time 28 day) of 101.5 x10_4/uL, an RBC ([…], time 28 day) of 797.2 x10_4/ul and a Ret ([…], time 28 day) of 2.1%. For the same compound, the WBC ([…], time 28 day) was 134.2 x10_2/uL, the KIDNEY_L ([…], time 7 day) was 1.1 g and the KIDNEY_R ([…], time 7 day) was 1.1 g. For the same compound, the KIDNEY_TOTAL ([…], time 7 day) was 2.1 g, the KIDNEY_L ([…], time 14 day) was 1.2 g and the KIDNEY_R ([…], time 14 day) was 1.2 g. For the same compound, the KIDNEY_TOTAL ([…], time 14 day) was 2.3 g, the KIDNEY_L ([…], time 28 day) was 1.4 g and the KIDNEY_R ([…], time 28 day) was 1.4 g. For the same compound, the KIDNEY_TOTAL ([…], time 28 day) was 2.7 g, the LIVER ([…], time 7 day) was 11.1 g and the LIVER ([…], time 14 day) was 12.6 g. For the same compound, the LIVER ([…], time 28 day) was 14.2 g, the A/G ([…], time 7 day) was 0.8 and the ALP ([…], time 7 day) was 1561.4 IU/L. It also gave an ALT ([…], time 7 day) of 47.4 IU/L, an AST ([…], time 7 day) of 69 IU/L and a BUN ([…], time 7 day) of 15.8 mg/dL. For the same compound, the CRE ([…], time 7 day) was 0.2 mg/dL, the Ca ([…], time 7 day) was 10.9 mg/dL and the Cl ([…], time 7 day) was 104.6 meq/L. The DBIL ([…], time 7 day) was 0.012 mg/dL, the GLC ([…], time 7 day) was 187 mg/dL and the IP ([…], time 7 day) was 7.3 mg/dL. It also gave a K ([…], time 7 day) of 3.8 meq/L, an LDH ([…], time 7 day) of 66.4 IU/L and a Na ([…], time 7 day) of 143.6 meq/L. The PL ([…], time 7 day) was 156.4 mg/dL, the RALB ([…], time 7 day) was 2.6 g/dL and the TBIL ([…], time 7 day) was 0.046 mg/dL. For the same compound, the TC ([…], time 7 day) was 80.4 mg/dL, the TG ([…], time 7 day) was 114 mg/dL and the TP ([…], time 7 day) was 5.8 g/dL. It also gave a gamma-GTP ([…], time 7 day) of 1 IU/L, an A/G ([…], time 14 day) of 0.8 and an ALP ([…], time 14 day) of 1627.8 IU/L. The ALT ([…], time 14 day) was 43.4 IU/L, the AST ([…], time 14 day) was 69.6 IU/L and the BUN ([…], time 14 day) was 17 mg/dL. It also gave a CRE ([…], time 14 day) of 0.2 mg/dL, a Ca ([…], time 14 day) of 11 mg/dL and a Cl ([…], time 14 day) of 105.4 meq/L. The DBIL ([…], time 14 day) was 0.022 mg/dL, the GLC ([…], time 14 day) was 186.6 mg/dL and the IP ([…], time 14 day) was 7.2 mg/dL. The K ([…], time 14 day) was 4 meq/L, the LDH ([…], time 14 day) was 72.6 IU/L and the Na ([…], time 14 day) was 143.6 meq/L. It also gave a PL ([…], time 14 day) of 156.2 mg/dL, an RALB ([…], time 14 day) of 2.7 g/dL and a TBIL ([…], time 14 day) of 0.05 mg/dL. For the same compound, the TC ([…], time 14 day) was 77.4 mg/dL, the TG ([…], time 14 day) was 145.2 mg/dL and the TP ([…], time 14 day) was 6 g/dL. The gamma-GTP ([…], time 14 day) was 0.6 IU/L, the A/G ([…], time 28 day) was 0.8 and the ALP ([…], time 28 day) was 1098.4 IU/L. For the same compound, the ALT ([…], time 28 day) was 40.8 IU/L, the AST ([…], time 28 day) was 61.8 IU/L and the BUN ([…], time 28 day) was 17.2 mg/dL. For the same compound, the CRE ([…], time 28 day) was 0.2 mg/dL, the Ca ([…], time 28 day) was 10.3 mg/dL and the Cl ([…], time 28 day) was 104.2 meq/L. The DBIL ([…], time 28 day) was 0.018 mg/dL, the GLC ([…], time 28 day) was 186.6 mg/dL and the IP ([…], time 28 day) was 6.3 mg/dL. For the same compound, the K ([…], time 28 day) was 4 meq/L, the LDH ([…], time 28 day) was 62.4 IU/L and the Na ([…], time 28 day) was 141.6 meq/L. The PL ([…], time 28 day) was 139.8 mg/dL, the RALB ([…], time 28 day) was 2.8 g/dL and the TBIL ([…], time 28 day) was 0.058 mg/dL. For the same compound, the TC ([…], time 28 day) was 71.4 mg/dL, the TG ([…], time 28 day) was 108 mg/dL and the TP ([…], time 28 day) was 6.3 g/dL. For the same compound, the gamma-GTP ([…], time 28 day) was 0.6 IU/L.
